Reference: patent publication US20060074083A1, “Cyclic and acyclic propenones for treating CNS disorders” (MERZ PHARMA GMBH & CO. KGAA, priority 2004, published 2006)

Compound	melting point
O=C(/C=C/c1cnc2ccccc2c1)C1CC1 [Example 5, 1-Cyclopropyl-3-quinolin-3-yl-propenone]	101 to 102 °C
COc1ccc(/C=C/C(=O)C23CC4CC(CC(C4)C2)C3)cc1C [Example 10, 1-Adamantan-1-yl-3-(4-methoxy-3-methyl-phenyl)-propenone]	138 to 140 °C
O=C(/C=C/c1cnc2ccccc2c1)C12CC3CC(CC(C3)C1)C2 [Example 7, 1-Adamantan-1-yl-3-quinolin-3-yl-propenone]	169 to 171 °C
COc1cc(/C=C/C(=O)C23CC4CC(CC(C4)C2)C3)cc(OC)c1 [Example 4, 1-Adamantan-1-yl-3-(3,5-dimethoxy-phenyl)-propenone]	118 to 119 °C
O=C(/C=C/c1ccc2c(c1)OCCO2)C12CC3CC(CC(C3)C1)C2 [Example 11, 1-Adamantan-1-yl-3-(2,3-dihydrobenzo[1,4]dioxin-6-yl)-propenone]	125 to 127 °C
